Consider 27 substances from article PMC7367873, “Dissecting the sequence determinants for dephosphorylation by the catalytic subunits of phosphatases PP1 and PP2A” (Nature Communications, 2020).

Test [1] has as its system GFP-14-3-3β and its binding proteins. The test can be described thus: GFP-14-3-3β co-IP with LC-MS/MS label-free quantification, untreated versus PP1c-treated. Also on record: species or system human. As to the method: (§1) HeLa Kyoto cells expressing transiently transfected pEGFP(C1)-14-3-3β or pEGFP(C1) control plasmid, were incubated with 20 nM Calyculin A (# 9902 S, Cell Signaling Technology) for 12 min. Cells were washed twice on ice with cold PBS and after addition of 500 µL lysis buffer (100 mM NaCl, 10 mM Tris, 0.1% IGEPAL, 1 mM EDTA, 1 mM EGTA, 20 nM Calyculin A, 1x cOmplete Mini protease inhibitor cocktail (Sigma), 1 mM DTT, 1 mM MnCl2) cells were scraped from plates, lysed by 10 pushes through an injection needle (21 G, BD) and the insoluble fraction was pelleted by centrifugation (10 min, 10^4 rcf, 4 °C). Supernatants were then subjected to incubation with 1 µM recombinant phosphatase or buffer for 1 h at 30 °C. Next, we subjected samples to immunoprecipitation using α-GFP nanobodies covalently coupled to agarose beads (2 h, 4 °C, obtained from the EMBL PEPcore Core Facility). Beads were then washed three times with lysis buffer and samples were eluted in 1x LDS sample buffer (Thermo Fisher Scientific) by heating to 70 °C for 10 min.
(§2) The samples were then reduced with 25 mM dithiothreitol (10 min at 70 °C) and alkylated with 55 mM chloroacetamide (room temperature, 30 min, in the dark). Proteins were run on a precast 4–12% NuPAGE gel (ThermoFisher Scientific) for about 1 cm to concentrate the sample prior to in-gel tryptic digestion, which was performed according to the standard procedures. The peptides obtained were dried to completeness and resuspended in 12 µL of buffer A (0.1% FA), and 5 µL of sample were injected per MS measurement. The experiment was carried out in three independent replicates.
(§3) The samples were analyzed by LC-MS/MS on a Dionex Ultimate 3000 nano-HPLC coupled online to a Fusion Lumos Tribrid mass spectrometer (Thermo Fisher Scientific). Peptides were delivered to a trap column (75 µm × 2 cm, packed in-house with 5 µm C18 resin; Reprosil PUR AQ, Dr. Maisch) and washed using 0.1% FA at a flow rate of 5 µL/min for 10 min. Subsequently, peptides were transferred to an analytical column (75 µm × 45 cm, packed in-house with 3 µm C18 resin; Reprosil Gold) applying a flow rate of 300 nL/min and separated using a 60 min linear gradient from 4% to 32% LC solvent B (0.1% FA, 5% DMSO in ACN) in LC solvent A (0.1% FA in 5% DMSO). The eluate from the analytical column was sprayed via a stainless steel emitter (Thermo Fisher Scientific) at a source voltage of 2.1 kV into the mass spectrometer. The transfer capillary was heated to 275 °C. The Fusion Lumos was operated in positive ionization mode and data-dependent acquisition (DDA), automatically switching between MS1 and MS2 spectrum acquisition. Full scan MS1 spectra were recorded in the Orbitrap from 360 to 1300 m/z at a resolution of 60k (automatic gain control (AGC) target value of 4e5 charges, maximum injection time (maxIT) of 50 ms). Up to 20 peptide precursors were isolated (isolation window, 1.7 m/z; maximum injection time, 25 ms; and AGC value, 1e5), fragmented by high-energy collision-induced dissociation (HCD) using 30% normalized collision energy (NCE), and analyzed at a resolution of 15k in the Orbitrap. Precursor ions that were singly charged, unassigned, or with charge states >6+ were excluded. The dynamic exclusion duration of fragmented precursor ions was 20 s.
(§4) Peptide and protein identification and LFQ were performed using MaxQuant software (version 1.6.1.0)[64] by searching the data against all canonical protein sequences as annotated in the Swissprot reference database (human proteins only, 20193 entries, downloaded 22 March 2016, internally annotated with PFAM domains) using the embedded search engine Andromeda[65]. The MaxQuant search was performed using two variable modifications; oxidation of methionine and N-terminal protein acetylation. Carbamidomethylation on cysteines was specified as a fixed modification. Trypsin (Trypsin/P) was specified as the proteolytic enzyme with up to two allowed missed cleavage sites.

Another test relates to GFP-14-3-3β. Description: GFP-14-3-3β co-IP with LC-MS/MS, untreated GFP-14-3-3β versus GFP control (14-3-3 interactome). Format: binding, human. The protocol: as §1, §2, §3, §4
The mark [2] stands for this setting: GFP-14-3-3β co-IP LC-MS/MS, PP1 vs untreated, student's t-test, label-free quantification, 3 replicates each.
Where [3] appears, read: GFP-14-3-3β co-IP LC-MS/MS, untreated vs GFP, student's t-test, label-free quantification, 3 replicates each.
Setting [4] is: log2 difference, pairwise comparison PP1 vs untreated, label-free quantification, 3 replicates each.
Setting [5] is: log2 difference, pairwise comparison untreated vs GFP, label-free quantification, 3 replicates each.
Where [6] appears, read: pairwise comparison PP1 vs untreated, student's t-test, 3 replicates each, LC-MS/MS label-free quantification.
Where [7] appears, read: pairwise comparison untreated GFP-14-3-3β vs GFP, student's t-test, 3 replicates each, LC-MS/MS label-free quantification.
Setting [8] is: pairwise comparison PP1 vs untreated.
Setting [9] is: pairwise comparison untreated vs GFP.
[10] abbreviates: PP1 vs untreated, LFQ intensities, 3 replicates each.
Setting [11] is: untreated vs GFP, LFQ intensities, 3 replicates each.
Where [12] appears, read: PP1 vs untreated, label-free quantification.
The mark [13] stands for this setting: untreated vs GFP, label-free quantification.

As to DDX21, the “Difference (log2), PP1 vs untreated” value in test [1] (setting [2]) is given as -0.7087 log2. Moreover, in the test on GFP-14-3-3β (setting [3]), the “Difference (log2), untreated vs GFP” value was determined as 2.481 log2.

Take DDX60: the “Difference (log2), PP1 vs untreated” value in test [1] (setting [4]) came to 1.555. The “Difference (log2), untreated vs GFP” value in the test on GFP-14-3-3β (setting [5]) is -0.05993.

For the substance DENND4A, in test [1] (setting [6]), the “Difference (log2), PP1 vs untreated” value was -5.672 log2. The “Difference (log2), untreated vs GFP” value in the test on GFP-14-3-3β (setting [7]) worked out at 5.3156 log2.

For DENND4C, the “Difference (log2), PP1 vs untreated” value in test [1] (setting [6]) is reported as -4.253 log2. Also, the “Difference (log2), untreated vs GFP” value in the test on GFP-14-3-3β (setting [7]) is recorded as 3.4091 log2.

As for DHX9, the “Difference (log2), PP1 vs untreated” value in test [1] (setting [2]) is listed as -0.3598 log2. The “Difference (log2), untreated vs GFP” value in the test on GFP-14-3-3β (setting [3]) came to 1.512 log2.

Regarding DNAJA1, in test [1] (setting [8]), the “Difference (log2), PP1 vs untreated” value was -0.1402 log2. Moreover, the “Difference (log2), untreated vs GFP” value in the test with GFP-14-3-3β (setting [9]) is given as -0.4796 log2.

Consider DNAJA2, for which the “Difference (log2), PP1 vs untreated” value in test [1] (setting [10]) is 0.6145 log2. For the same substance, the “Difference (log2), untreated vs GFP” value in the test with GFP-14-3-3β (setting [11]) is -1.855 log2.

Regarding DNMBP, the “Difference (log2), PP1 vs untreated” value in test [1] (setting [6]) is reported as -4.455 log2. Also, the “Difference (log2), untreated vs GFP” value with GFP-14-3-3β (setting [7]) came out at 3.515 log2.

For DOCK7, the “Difference (log2), PP1 vs untreated” value in test [1] (setting [6]) is -5.0278 log2. Besides, the “Difference (log2), untreated vs GFP” value in the test on GFP-14-3-3β (setting [7]) turned out to be 5.106 log2.

Turning to DOCK11, in test [1] (PP1 vs untreated, LFQ intensities, replicates 1-3), the “Difference (log2), PP1 vs untreated” value is on record as -1.861 log2. For the same substance, the “Difference (log2), untreated vs GFP” value with GFP-14-3-3β (untreated vs GFP, LFQ intensities, replicates 1-3) was determined as 2.579 log2.

Consider DPYSL3;CRMP1, for which the “Difference (log2), PP1 vs untreated” value in test [1] (setting [4]) is reported as 2.547. Also, the “Difference (log2), untreated vs GFP” value in the test with GFP-14-3-3β (setting [5]) is listed as -3.981.

As to DSP, the “Difference (log2), PP1 vs untreated” value in test [1] (setting [4]) is 4.203. Also, the “Difference (log2), untreated vs GFP” value in the test with GFP-14-3-3β (setting [5]) is -0.252.

In the case of DTX3L, in test [1] (setting [8]), the “Difference (log2), PP1 vs untreated” value is -0.03751 log2. Also, the “Difference (log2), untreated vs GFP” value in the test with GFP-14-3-3β (setting [9]) turned out to be 0.3421 log2.

Turning to DYNC1H1, the “Difference (log2), PP1 vs untreated” value in test [1] (setting [12]) is listed as 0.7684 log2. In addition, the “Difference (log2), untreated vs GFP” value with GFP-14-3-3β (setting [13]) was 3.605 log2.

As for DYNLL1, the “Difference (log2), PP1 vs untreated” value in test [1] (setting [6]) is on record as -2.451 log2. The “Difference (log2), untreated vs GFP” value in the test on GFP-14-3-3β (setting [7]) was 3.684 log2.

Regarding ECM29, the “Difference (log2), PP1 vs untreated” value in test [1] (setting [2]) is -0.2746 log2. In addition, the “Difference (log2), untreated vs GFP” value with GFP-14-3-3β (setting [3]) is -0.4278 log2.

Turning to EEF1G, the “Difference (log2), PP1 vs untreated” value in test [1] (setting [10]) came to 0.3367 log2. Further, the “Difference (log2), untreated vs GFP” value in the test on GFP-14-3-3β (setting [11]) is -0.3337 log2.

In the case of EFTUD2, in test [1] (setting [2]), the “Difference (log2), PP1 vs untreated” value is on record as -0.7202 log2. Also, in the test on GFP-14-3-3β (setting [3]), the “Difference (log2), untreated vs GFP” value turned out to be 2.59 log2.

Consider EIF4G1, for which the “Difference (log2), PP1 vs untreated” value in test [1] (setting [8]) is recorded as 0.2022 log2. In the test with GFP-14-3-3β (setting [9]), the “Difference (log2), untreated vs GFP” value stood at 0.6525 log2.

Take ELAVL1: the “Difference (log2), PP1 vs untreated” value in test [1] (setting [10]) turned out to be 0.612 log2. In addition, in the test with GFP-14-3-3β (setting [11]), the “Difference (log2), untreated vs GFP” value turned out to be 3.578 log2.

As for EMC1, the “Difference (log2), PP1 vs untreated” value in test [1] (setting [4]) came out at 1.575. The “Difference (log2), untreated vs GFP” value in the test on GFP-14-3-3β (setting [5]) was -0.5374.

In the case of EMD, the “Difference (log2), PP1 vs untreated” value in test [1] (setting [12]) is on record as 1.014 log2. Also, in the test on GFP-14-3-3β (setting [13]), the “Difference (log2), untreated vs GFP” value is given as -1.504 log2.

As to EPPK1, in test [1] (setting [8]), the “Difference (log2), PP1 vs untreated” value stood at 0.1139 log2. The “Difference (log2), untreated vs GFP” value in the test on GFP-14-3-3β (setting [9]) is 0.5175 log2.

For EPRS, in test [1] (setting [2]), the “Difference (log2), PP1 vs untreated” value is -0.1517 log2. In addition, the “Difference (log2), untreated vs GFP” value in the test on GFP-14-3-3β (setting [3]) is recorded as -0.2032 log2.

As for FAM98A, the “Difference (log2), PP1 vs untreated” value in test [1] (setting [10]) is reported as 0.6235 log2. Also, the “Difference (log2), untreated vs GFP” value with GFP-14-3-3β (setting [11]) came to 0.9941 log2.

On to FASN, for which the “Difference (log2), PP1 vs untreated” value in test [1] (setting [10]) is reported as 0.3561 log2. Besides, the “Difference (log2), untreated vs GFP” value in the test with GFP-14-3-3β (setting [11]) was 1.462 log2.

In the case of FBXO22, the “Difference (log2), PP1 vs untreated” value in test [1] (setting [6]) is -4.621 log2. Besides, the “Difference (log2), untreated vs GFP” value in the test on GFP-14-3-3β (setting [7]) turned out to be 0.4281 log2.
